The NIST ThermoML archive (doi:10.1021/je900210h)
Values joined by “and” are separate entries in the source; they are usually repeats but may differ in a detail not shown here. Identical values can stand only once.

Conditions: Fluid (supercritical or subcritical phases), Coaxial cylinder method

FCC(F)(F)F [1,1,1,2-tetrafluoroethane]
Conditions	thermal conductivity
375.76 K, 4223 kPa	0.0752 W/m/K
375.77 K, 4161 kPa	0.0731 W/m/K
375.79 K, 4241 kPa	0.0673 W/m/K
375.8 K, 3504 kPa	0.029 W/m/K
375.8 K, 4150 kPa	0.0656 W/m/K
375.81 K, 3534 kPa	0.0279 W/m/K
375.82 K, 4254 kPa	0.0627 W/m/K
375.83 K, 4141 kPa	0.06 W/m/K
375.84 K, 4279 kPa	0.0589 W/m/K
375.85 K, 4296 kPa	0.0573 W/m/K
375.86 K, 4316 kPa	0.0558 W/m/K
375.86 K, 4334 kPa	0.0551 W/m/K
375.87 K, 3165 kPa	0.0261 W/m/K
375.87 K, 3264 kPa	0.0264 W/m/K
375.87 K, 4132 kPa	0.0548 W/m/K
375.87 K, 4349 kPa	0.0546 W/m/K
375.87 K, 4363 kPa	0.0539 W/m/K
375.88 K, 4387 kPa	0.0535 W/m/K
375.88 K, 4432 kPa	0.0526 W/m/K
375.88 K, 4461 kPa	0.0526 W/m/K and 0.0524 W/m/K
375.89 K, 4451 kPa	0.0521 W/m/K
375.89 K, 4630 kPa	0.052 W/m/K
375.9 K, 2970 kPa	0.0251 W/m/K
375.92 K, 4120 kPa	0.0485 W/m/K
375.93 K, 2700 kPa	0.0265 W/m/K
375.94 K, 2662 kPa	0.024 W/m/K
375.95 K, 2429 kPa	0.0235 W/m/K
375.95 K, 3993 kPa	0.0374 W/m/K
375.99 K, 3936 kPa	0.0349 W/m/K
375.99 K, 4072 kPa	0.0417 W/m/K
376.01 K, 3908 kPa	0.034 W/m/K
376.02 K, 4205 kPa	0.0817 W/m/K
376.02 K, 4207 kPa	0.0822 W/m/K
376.02 K, 4209 kPa	0.0826 W/m/K
376.02 K, 4213 kPa	0.0826 W/m/K
376.02 K, 4217 kPa	0.0821 W/m/K
376.03 K, 4203 kPa	0.0807 W/m/K
376.03 K, 4222 kPa	0.0806 W/m/K
376.03 K, 4225 kPa	0.0797 W/m/K
376.04 K, 1048 kPa	0.0214 W/m/K
376.04 K, 4039 kPa	0.0379 W/m/K
376.04 K, 4200 kPa	0.0784 W/m/K
376.04 K, 4230 kPa	0.0774 W/m/K
376.04 K, 4233 kPa	0.0766 W/m/K
376.05 K, 773 kPa	0.0212 W/m/K
376.05 K, 4198 kPa	0.0754 W/m/K
376.06 K, 524 kPa	0.0208 W/m/K
376.06 K, 4011 kPa	0.0362 W/m/K
376.06 K, 4242 kPa	0.0737 W/m/K
376.07 K, 200 kPa	0.0205 W/m/K
376.07 K, 4190 kPa	0.0693 W/m/K
376.07 K, 4250 kPa	0.0708 W/m/K
376.08 K, 3975 kPa	0.0352 W/m/K
376.08 K, 4260 kPa	0.0686 W/m/K
376.09 K, 4270 kPa	0.0669 W/m/K
376.09 K, 4280 kPa	0.0656 W/m/K
376.1 K, 3941 kPa	0.0342 W/m/K
376.1 K, 4180 kPa	0.0622 W/m/K
376.1 K, 4300 kPa	0.0638 W/m/K
376.11 K, 3913 kPa	0.0333 W/m/K
376.11 K, 4320 kPa	0.0624 W/m/K
376.14 K, 5520 kPa	0.054 W/m/K
376.14 K, 5651 kPa	0.0543 W/m/K
376.14 K, 5740 kPa	0.0545 W/m/K
376.15 K, 4789 kPa	0.0527 W/m/K
376.15 K, 5037 kPa	0.0529 W/m/K
376.15 K, 5092 kPa	0.0531 W/m/K
376.15 K, 5216 kPa	0.0534 W/m/K
376.15 K, 5296 kPa	0.0536 W/m/K
376.16 K, 4754 kPa	0.0523 W/m/K
376.19 K, 4160 kPa	0.0503 W/m/K
376.21 K, 3800 kPa	0.0312 W/m/K
376.21 K, 4150 kPa	0.048 W/m/K
376.23 K, 2350 kPa	0.0256 W/m/K
376.23 K, 3734 kPa	0.0301 W/m/K
376.26 K, 4264 kPa	0.081 W/m/K
376.26 K, 4360 kPa	0.0608 W/m/K
376.26 K, 4390 kPa	0.06 W/m/K
376.27 K, 4230 kPa	0.0811 W/m/K
376.28 K, 4218 kPa	0.0789 W/m/K
376.28 K, 4267 kPa	0.0803 W/m/K
376.29 K, 4214 kPa	0.078 W/m/K
376.29 K, 4279 kPa	0.0786 W/m/K
376.31 K, 4210 kPa	0.077 W/m/K
376.33 K, 3030 kPa	0.0242 W/m/K
376.34 K, 4199 kPa	0.074 W/m/K
376.34 K, 4305 kPa	0.0746 W/m/K
376.38 K, 2200 kPa	0.0252 W/m/K
376.38 K, 4192 kPa	0.0712 W/m/K
376.4 K, 3872 kPa	0.0323 W/m/K
376.41 K, 3872 kPa	0.0317 W/m/K
376.41 K, 4184 kPa	0.0684 W/m/K
376.42 K, 3872 kPa	0.0315 W/m/K
376.44 K, 3783 kPa	0.0303 W/m/K
376.44 K, 4178 kPa	0.0661 W/m/K
376.44 K, 4354 kPa	0.0663 W/m/K
376.46 K, 3783 kPa	0.0297 W/m/K
376.48 K, 3675 kPa	0.0288 W/m/K
376.48 K, 4174 kPa	0.0639 W/m/K
376.5 K, 3593 kPa	0.0281 W/m/K
376.51 K, 2527 kPa	0.0229 W/m/K
376.51 K, 3504 kPa	0.0275 W/m/K
376.51 K, 4168 kPa	0.0618 W/m/K
376.52 K, 4404 kPa	0.0612 W/m/K
376.53 K, 3468 kPa	0.0269 W/m/K
376.54 K, 4470 kPa	0.059 W/m/K
376.54 K, 4580 kPa	0.0586 W/m/K
376.55 K, 3302 kPa	0.0263 W/m/K
376.55 K, 4165 kPa	0.0598 W/m/K
376.56 K, 3210 kPa	0.0257 W/m/K
376.57 K, 4451 kPa	0.0587 W/m/K
376.58 K, 4158 kPa	0.0579 W/m/K
376.59 K, 3210 kPa	0.0248 W/m/K
376.6 K, 3210 kPa	0.0246 W/m/K
376.61 K, 3210 kPa	0.0244 W/m/K
376.61 K, 4150 kPa	0.0562 W/m/K
376.65 K, 4147 kPa	0.0545 W/m/K
376.68 K, 4141 kPa	0.0524 W/m/K
376.68 K, 4680 kPa	0.0583 W/m/K
376.69 K, 4140 kPa	0.0427 W/m/K
376.73 K, 4100 kPa	0.0395 W/m/K
376.78 K, 4040 kPa	0.0364 W/m/K
376.81 K, 3990 kPa	0.0346 W/m/K
376.82 K, 4117 kPa	0.047 W/m/K
376.82 K, 4820 kPa	0.0577 W/m/K
376.82 K, 4860 kPa	0.0575 W/m/K
376.87 K, 3880 kPa	0.0318 W/m/K
376.87 K, 4101 kPa	0.0452 W/m/K
376.87 K, 4504 kPa	0.0571 W/m/K
376.89 K, 4548 kPa	0.0562 W/m/K
376.9 K, 3800 kPa	0.0304 W/m/K
376.92 K, 3740 kPa	0.0295 W/m/K
376.95 K, 3650 kPa	0.0285 W/m/K
376.96 K, 2027 kPa	0.0218 W/m/K
376.98 K, 3510 kPa	0.0274 W/m/K
377.01 K, 4289 kPa	0.072 W/m/K
377.01 K, 4294 kPa	0.0724 W/m/K
377.01 K, 4307 kPa	0.0724 W/m/K
377.01 K, 4309 kPa	0.072 W/m/K
377.01 K, 4312 kPa	0.0717 W/m/K
377.02 K, 4322 kPa	0.0706 W/m/K
377.02 K, 4332 kPa	0.0691 W/m/K
377.03 K, 4343 kPa	0.0674 W/m/K
377.04 K, 4356 kPa	0.0661 W/m/K
377.05 K, 4380 kPa	0.0636 W/m/K
377.05 K, 4384 kPa	0.0634 W/m/K
377.06 K, 4397 kPa	0.0625 W/m/K
377.06 K, 4417 kPa	0.0617 W/m/K
377.07 K, 4439 kPa	0.0606 W/m/K
377.07 K, 4473 kPa	0.06 W/m/K
377.08 K, 4495 kPa	0.0595 W/m/K
377.08 K, 4538 kPa	0.0587 W/m/K
377.17 K, 4275 kPa	0.0671 W/m/K
377.18 K, 4270 kPa	0.0648 W/m/K
377.19 K, 4266 kPa	0.063 W/m/K
377.24 K, 4249 kPa	0.0555 W/m/K
377.26 K, 4241 kPa	0.0529 W/m/K
377.27 K, 4235 kPa	0.0513 W/m/K
377.29 K, 4226 kPa	0.0494 W/m/K
377.32 K, 4211 kPa	0.0466 W/m/K
377.36 K, 4613 kPa	0.0583 W/m/K
377.36 K, 4653 kPa	0.0578 W/m/K
377.36 K, 4697 kPa	0.0578 W/m/K
377.36 K, 4760 kPa	0.0576 W/m/K
377.37 K, 4836 kPa	0.0569 W/m/K
377.37 K, 4907 kPa	0.0562 W/m/K
377.51 K, 4164 kPa	0.0415 W/m/K
377.55 K, 4126 kPa	0.039 W/m/K
377.58 K, 4079 kPa	0.0366 W/m/K
377.73 K, 4701 kPa	0.055 W/m/K
377.83 K, 4369 kPa	0.0678 W/m/K
377.83 K, 4381 kPa	0.0681 W/m/K
377.83 K, 4390 kPa	0.0681 W/m/K
377.83 K, 4400 kPa	0.0678 W/m/K
377.84 K, 4360 kPa	0.0668 W/m/K
377.84 K, 4411 kPa	0.0668 W/m/K
377.84 K, 4420 kPa	0.0658 W/m/K
377.85 K, 4351 kPa	0.0652 W/m/K
377.85 K, 4432 kPa	0.0652 W/m/K
377.85 K, 4441 kPa	0.064 W/m/K
377.86 K, 4451 kPa	0.0631 W/m/K
377.86 K, 4460 kPa	0.0623 W/m/K
377.86 K, 4997 kPa	0.0548 W/m/K
